Experimental data as given in US20130064855A1, “REPROGRAMMING IMMUNE ENVIRONMENT IN BREAST CANCER VIA DENDRITIC CELLS” (BAYLOR RESEARCH INSTITUTE, priority 2011, published 2013).
Entries after “also recorded” stand apart in the source; their conditions may differ.

Assays:
[1] = system: allogenic naive CD4+ T cells; assay: curdlan-treated, tumor supernatant-activated mDCs co-cultured with allogenic naive CD4+ T cells; intracellular cytokines; type: cell-based, human; details: mDCs pre-treated with 100 ug/ml curdlan, MDA-MB231 supernatant 48 hrs, co-culture one week
From the text: After one week, cells were collected and re-stimulated for intracellular cytokines analysis. The analysis of different studies showing the effect of curdlan treatment in the induction of TNFa+IL-13+ secreting cells is shown in FIG. 5 B.

[2] = system: myeloid dendritic cells (mDCs); assay: mDCs pre-treated with curdlan and cultured with breast tumor derived products; phenotype staining and cytokine in supernatant; type: cell-based, human
From the text: Isolation and culture of myeloid dendritic cells: DCs were purified from buffy coat of blood from healthy donors. Briefly, DCs were enriched from mononuclear cells by negative selection using a mixture of antibodies against lineage markers for CD3, CD14, CD16, CD19, CD56 and glycophorin A (Dynabeads® Human DC Enrichment Kit, Invitrogen). Cells from negative fraction were immuno-labeled with anti-human FITC-labeled lineage cocktail (CD3, CD14, CD16, CD19, CD20 and CD56, BD biosciences Cat. 340546); PE-labeled CD123 (mIgG1, clone 9F5, BD biosciences Cat. 340545), QR-labeled HLA-DR (mIgG2a, clone HK14, Sigma-Aldrich Cat. R8144) and APC-labeled CD11c (mIgG2b, clone S—HCL-3, BD biosciences Cat. 340544). DCs (lin^−, CD123^−, HLA-DR^+, CD11c^+) were sorted in a FACS Aria cytometer (BD Bioscience). DCs were seeded at 100×10^3 cells/well in 200 μl of medium (RPMI supplemented with glutamine 2 mM, penicillin 50 U/ml, streptomycin 50 μg/ml, MEM non-essential amino acids 0.1 mM, HEPES buffer 10 mM, sodium pyruvate 0.1 mM and 10% of human AB serum). DCs were cultured with medium alone or in the presence of 20 ng/ml of TSLP, or different tumor derived products. After 48 hrs DCs were harvested and washed. The stimulated cells were stained for phenotype analysis or co-culture with allogeneic naïve CD4 T cells.
Tumor factors preparation: Tumor factors were obtained from supernatant of HS578T cells cultured in vitro or by sonication from tumor cell lines, human breast tumor tissue or tumors from humanized mice. Briefly, cell lines were culture in medium (RPMI supplemented with glutamine 2 mM, penicillin 50 U/ml, streptomycin 50 μg/ml, MEM non-essential amino acids 0.1 mM, HEPES buffer 10 mM, sodium pyruvate 0.1 mM and 10% of fetal calf serum), and when the cells reached 90% of confluence fresh medium was added and left the cells in culture for additional 48 hrs. For sonication cells or tissues were placed in PBS and were disrupted during 30 seconds at 4° C., with the power output adjusted at 4.5 level of the 60 sonic dismembrator (Fisher Scientific). Cellular debris were removed by centrifugation and the supernatant was collected and stored at −80° C.
The present inventors believe that DC activators can modulate the functions of DCs and reprogram the immune microenvironment (FIG. 4 A). FIGS. 4B, 4C and 4D show the results when DCs were purified from buffy coat of blood from healthy donors. DCs were cultured with medium alone or in the presence of tumor derived products (FIG. 4B). The curdlan treatment is 3 min at room temperature prior to adding tumor supernatant. After 48 hrs, DCs were harvested and washed. The stimulated cells were staining for phenotype (OX40L, pSTAT4 and pSTAT6). The supernatant of DC culture was used for cytokine (IL-12p70) examination (FIGS. 4C and 4D).

CD8+ T cells = assay: curdlan-treated, tumor supernatant-activated mDCs co-cultured with allogenic naive total T cells; CD103 staining; type: cell-based, human; details: mDCs pre-treated with 100 ug/ml curdlan, MDA-MB231 supernatant 48 hrs, co-culture one week
Procedure: Sorted mDCs (HLA-DR+/CD11c+/CD123−/Lin−) were pre-treated with 100 ug/ml curdlan and activated by supernatant of a breast cancer cell line (MDA-MB231) for 48 hrs and then co-culture with allogenic naive total T cells (FIG. 7A). After one week, cells were collected and stained with intraepithelial marker, CD 103, together with granzymeA and granzymeB staining CD8+ T cells were sorted from in vitro culture and intratumoral inject into NOD-SCID mice. After 3 days, tumors were harvested and digested with collagenase (FIG. 7B).

[3] = system: Hs578T breast cancer cells; assay: breast tumor growth in tumor bearing humanized mice; type: in vivo, NOD/SCID/β2−/− mice; details: curdlan (100 ug/ml) co-injected with DCs and T cells at days 3, 6 and 9 post tumor implantation
From the text: Tumor bearing humanized mice: CD34+hematopoietic progenitor cells (HPCs) were obtained from apheresis of adult healthy volunteers mobilized with G-CSF and purified as previously described. The CD34− fraction of apheresis was Ficoll purified, and obtained PBMCs were stored frozen and used as a source of autologous T cells. Three million CD34+HPCs were transplanted intravenously into sublethally irradiated (12 cGy/g body weight of 137Cs γ irradiation) NOD/SCID/β2−/− mice ([…]). After 4 weeks of engraftment 10 million Hs578T breast cancer cells were harvested from cultures and injected subcutaneously into the flanks of the mice. Mice were reconstituted with 10 million CD4+ T cells and 10 million CD8+ T cells autologous to the grafted CD34+ HPCs. CD4+ and CD8+ T cells were positively selected from thawed PBMCs using magnetic selection according to the manufacturer's instructions (Miltenyi Biotec). The purity was routinely >90%. […] Tumor size was monitored every 2-3 d. Tumor volume (ellipsoid) was calculated as follows: [(short diameter)^2×long diameter]/2.
FIGS. 6A and 6B show NOD/SCID/β2−/− mice sub-lethally irradiated the day before tumor implantation. […] Tumor size was monitored every 2-3 d. Tumor volume (ellipsoid) was calculated as follows: [(short diameter)^2×long diameter]/2. […] Supernatant was harvested and cytokines were detected by Luminex.

[4] = curdlan treatment prior to tumor supernatant, 48 hrs

β-glucan
expansion of TNFα and IL-13-producing CD4+ T cells (inflammatory Th2 phenotype) [1]: can be inhibited; also recorded: do not expand TNFα and IL-13-producing CD4+ T cells; also recorded: non-expansion of TNFα and IL-13-producing CD4+ T cells
OX40L expression on mDCs (TSLP-mediated OX40L induction) [2, 4]: inhibition of TSLP-mediated OX40L induction; also recorded: can block OX40L expression
pSTAT4/pSTAT6 ratio in mDCs [2, 4]: pSTAT4/pSTAT6 ratio increase
IL-12p70 secretion by mDCs ([2]; mDCs activated by breast tumor supernatant, DC culture supernatant, 48 hrs): induction of IL-12p70 secretion; also recorded: secrete higher levels of IL-12p70; also recorded: secretion of high levels of IL-12p70
STAT6 phosphorylation in mDCs ([2]; tumor associated mDCs): blocking STAT6 phosphorylation; also recorded: block in STATE phosphorylation
expansion of CD8+ T cells expressing CD103 (CD8+ T cells): expand CD8+ T cells expressing CD103
breast tumor growth / development [3]: blocks breast tumor growth; also recorded: can inhibit breast tumor development; also recorded: inhibited breast tumor development
